This is an account of results in PubChem BioAssay (NCI).

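Five compound concentrations were applied to cells in 96-well plates for 48 hours; endpoints were derived by simple linear interpolation of the resulting dose-response curve. Abbreviation: GI50, concentration required for 50% inhibition of growth. TGI marks complete inhibition of growth.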

Some test systems named below: BT-549 breast; M14 melanoma; MDA-MB-435; T-47D breast; LOX IMVI melanoma; HL-60(TB) leukemia; NCI/ADR-RES ovarian; EKVX NSCLC.
Holding throughout (assay): NCI-60 cell line screen, 48 h

In the case of `O=C(O)c1cc(CCc2cc(O)ccc2O)ccc1O`, the TGI with BT-549 breast is above 100 µM; in the test on M14 melanoma, above 100 µM; with MDA-MB-435, above 100 µM; in the test on T-47D breast it was above 100 µM; in the test with LOX IMVI melanoma, above 100 µM; in the test with HL-60(TB) leukemia, 77.7 µM. Moreover, the TGI in the test on NCI/ADR-RES ovarian and with EKVX NSCLC was above 100 µM throughout.
For the molecule `Fc1ccc(/C=N/n2c(-c3ccc(F)c(Cl)c3)n[nH]c2=S)cc1`, the GI50 was 78500 nM with BT-549 breast; 23800 nM in the test on M14 melanoma; 57700 nM in the test with MDA-MB-435; 20700 nM in the test with T-47D breast; 34800 nM in the test with HL-60(TB) leukemia; 23400 nM with NCI/ADR-RES ovarian. The GI50 in the test on EKVX NSCLC is 32300 nM. Moreover, the TGI in the test with BT-549 breast is above 100 µM; with M14 melanoma, 71.6 µM; in the test on MDA-MB-435, above 100 µM; in the test with T-47D breast it was 40.1 µM; with HL-60(TB) leukemia it was above 100 µM; in the test on NCI/ADR-RES ovarian, 59.4 µM. Also, in the test with EKVX NSCLC, the TGI is above 100 µM.
For the molecule `Cc1cc(C)c(C2CNCc3cc4c(cc32)CNCC4c2c(C)cc(C)cc2C)c(C)c1` (stereo not drawn), the GI50 was 4.39 µg/mL in the test on BT-549 breast; 1.83 µg/mL in the test with M14 melanoma; 1.88 µg/mL in the test with MDA-MB-435; 2.68 µg/mL in the test on T-47D breast; 1.85 µg/mL in the test on LOX IMVI melanoma; 1.81 µg/mL in the test on HL-60(TB) leukemia. Besides, the GI50 in the test on NCI/ADR-RES ovarian was 6.38 µg/mL; in the test on EKVX NSCLC it was 5.97 µg/mL. Besides, the TGI in the test with BT-549 breast amounted to 15.9 µg/mL; in the test with M14 melanoma it was 3.28 µg/mL; in the test with MDA-MB-435, 3.84 µg/mL; with T-47D breast, 7.65 µg/mL; in the test on LOX IMVI melanoma, 4.31 µg/mL; in the test on HL-60(TB) leukemia, 4.3 µg/mL. Besides, the TGI in the test on NCI/ADR-RES ovarian was 19.5 µg/mL; in the test with EKVX NSCLC it was 17.2 µg/mL.
Regarding `C[CH2][Hg][S]c1ccccc1C(=O)O`, the GI50 in the test with BT-549 breast is 1430 nM; with M14 melanoma it was 1360 nM; with MDA-MB-435, 1400 nM; in the test on T-47D breast, 522 nM; in the test with LOX IMVI melanoma it was 488 nM; in the test on HL-60(TB) leukemia, 314 nM. Moreover, the GI50 in the test on NCI/ADR-RES ovarian is 1940 nM; in the test on EKVX NSCLC, 2050 nM. The TGI was found to be 2.76 µM with BT-549 breast; 2.74 µM in the test with M14 melanoma; 2.95 µM in the test with MDA-MB-435; 2.79 µM in the test with T-47D breast; 2.16 µM in the test with LOX IMVI melanoma; 1.18 µM in the test on HL-60(TB) leukemia. Besides, the values for the TGI with NCI/ADR-RES ovarian and in the test on EKVX NSCLC were 4.79 µM and 5.39 µM, respectively.
As to `COc1ccc2c(-c3ccnc(Nc4cccc(OC(F)(F)F)c4)n3)cnn2n1`, the GI50 is 1480 nM with BT-549 breast; 1260 nM in the test on M14 melanoma; 144 nM in the test with MDA-MB-435; 1710 nM in the test on T-47D breast; 1020 nM in the test with LOX IMVI melanoma; 1070 nM in the test with HL-60(TB) leukemia. In addition, the GI50 in the test with NCI/ADR-RES ovarian was 730 nM; with EKVX NSCLC it was 2870 nM. The TGI in the test with BT-549 breast was above 25 µM; in the test with M14 melanoma it was above 12.9 µM; in the test on MDA-MB-435 it was 0.692 µM; in the test on T-47D breast, 6.56 µM; with LOX IMVI melanoma, 6.47 µM; with HL-60(TB) leukemia it was above 25 µM. The figures for the TGI with NCI/ADR-RES ovarian and in the test on EKVX NSCLC were 6.74 µM and above 25 µM, respectively.
In the case of `Cc1[nH]c(-c2cc(N)ccc2Cl)c2c1C(=O)CCCC2`, the GI50 in the test with BT-549 breast is 5890 nM; in the test on M14 melanoma, 4370 nM; in the test with MDA-MB-435 it was 3240 nM; in the test on T-47D breast, 3470 nM; in the test on LOX IMVI melanoma, 2250 nM; in the test with HL-60(TB) leukemia, 2030 nM. Also, the results for the GI50 with NCI/ADR-RES ovarian and in the test on EKVX NSCLC were 4780 nM and 6090 nM, respectively. Besides, the TGI in the test on BT-549 breast was above 100 µM; with M14 melanoma, above 100 µM; in the test with MDA-MB-435 it was 19.5 µM; in the test with T-47D breast, above 100 µM; in the test on LOX IMVI melanoma, 7.39 µM; with HL-60(TB) leukemia, 6.79 µM. Further, the TGI in the test with NCI/ADR-RES ovarian and in the test on EKVX NSCLC was above 100 µM throughout.
On to `Oc1c(-c2cc(C(F)(F)F)[nH]n2)cc(Cl)c(OCc2ccc(Cl)cc2)c1-c1ccc(Cl)c(C(F)(F)F)c1`, for which the GI50 is 624 nM in the test on BT-549 breast; 851 nM in the test on M14 melanoma; 1060 nM with MDA-MB-435; 147 nM with T-47D breast; 967 nM in the test with LOX IMVI melanoma; 677 nM with HL-60(TB) leukemia. Further, the GI50 with NCI/ADR-RES ovarian was 221 nM; in the test on EKVX NSCLC it was 795 nM. Also, the TGI in the test with BT-549 breast stood at 2.16 µM; in the test with M14 melanoma, 2.44 µM; with MDA-MB-435 it was 4.11 µM; with T-47D breast, 1.53 µM; with LOX IMVI melanoma it was 2.9 µM; with HL-60(TB) leukemia, 3.12 µM. The TGI was 5.82 µM in the test with NCI/ADR-RES ovarian and 5.56 µM in the test on EKVX NSCLC.
For `Clc1ccc(C2ON=C(c3ccccc3)N2C23CC4CC(CC(C4)C2)C3)cc1` (stereo not drawn), the TGI in the test with BT-549 breast, in the test on M14 melanoma, with MDA-MB-435, in the test on T-47D breast, in the test with LOX IMVI melanoma and in the test on HL-60(TB) leukemia was above 10 µM in each case. Besides, the TGI in the test on NCI/ADR-RES ovarian and in the test with EKVX NSCLC was above 10 µM each time.
With `CCc1c(C)nc2sc3c(N)ncnc3c2c1C`, the GI50 in the test on BT-549 breast, in the test on M14 melanoma, in the test with MDA-MB-435, with T-47D breast, with LOX IMVI melanoma and with HL-60(TB) leukemia was above 25000 nM each time. Moreover, in the test with NCI/ADR-RES ovarian, the GI50 was above 25000 nM. Further, the TGI with BT-549 breast, with M14 melanoma, in the test with MDA-MB-435, with T-47D breast, in the test with LOX IMVI melanoma and in the test with HL-60(TB) leukemia was above 25 µM throughout. Besides, the TGI with NCI/ADR-RES ovarian was above 25 µM.
Consider `COc1ccc(Nc2ccnc(N3CCN(c4ccnc5cc(Cl)ccc45)CC3)n2)cc1`, for which the GI50 is 1160 nM in the test on BT-549 breast; 768 nM with M14 melanoma; 227 nM with MDA-MB-435; 1390 nM in the test on T-47D breast; 884 nM in the test on LOX IMVI melanoma; 1140 nM in the test with HL-60(TB) leukemia. Further, the GI50 in the test on NCI/ADR-RES ovarian is 769 nM. The TGI in the test with BT-549 breast was determined as 3.72 µM; in the test on M14 melanoma, 3.28 µM; in the test on MDA-MB-435, 0.707 µM; with T-47D breast it was 6.99 µM; in the test on LOX IMVI melanoma it was 5.23 µM; in the test with HL-60(TB) leukemia, 7.18 µM. In the test with NCI/ADR-RES ovarian, this molecule came in with a TGI of 5.22 µM.
